Data reported in paper PMC12084609, “Structural insights into small-molecule agonist recognition and activation of complement receptor C3aR” (The EMBO Journal, 2025).
Changes are numbered by the printed parent chain. Several values for one entry are separate records, joined by “and”; a condition that tells them apart may be missing. Equal values may be shown once. Read-outs that look alike come from different tables or passages of the source.

Experiments:
Type in all cases: cell-based
C3aR R161^ECL2A = target: T1, C3aR R161^ECL2A (Homo sapiens, UniProt Q16581, R161A); experiment: GloSensor-based cAMP assay, C3aR mutant R161A
T1 construct: expressed in transfected cells; host or cells: HEK293T
T1 sequence (Q16581 1-482 R161A): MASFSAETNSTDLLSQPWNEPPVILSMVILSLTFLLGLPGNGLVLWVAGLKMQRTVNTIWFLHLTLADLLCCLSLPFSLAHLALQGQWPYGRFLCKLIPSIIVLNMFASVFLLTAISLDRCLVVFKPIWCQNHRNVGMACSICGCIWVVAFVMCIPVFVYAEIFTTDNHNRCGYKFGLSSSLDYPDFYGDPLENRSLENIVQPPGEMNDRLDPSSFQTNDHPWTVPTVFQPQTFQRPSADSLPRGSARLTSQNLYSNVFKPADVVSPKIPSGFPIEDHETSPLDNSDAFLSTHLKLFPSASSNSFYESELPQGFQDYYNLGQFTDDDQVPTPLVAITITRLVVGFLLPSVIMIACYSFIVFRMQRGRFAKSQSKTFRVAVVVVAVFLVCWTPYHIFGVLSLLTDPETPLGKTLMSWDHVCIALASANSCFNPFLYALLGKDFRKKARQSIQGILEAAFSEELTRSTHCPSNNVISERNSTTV
Description: (§1) HEK293T cells were seeded on 6-well plates (NEST) and transfected with pGlosensor™-22F plasmids (Promega) and pcDNA3.1 plasmids encoding C3aR or its mutants an with N-terminal FLAG tag. After 48 h, cells were detached with Accutase solution (Sigma-Aldrich) and washed with PBS, and resuspended in assay buffer (CO2-independent medium with 0.5 mg mL^−1D-luciferin). 100,000–200,000 cells were seeded on 96-well white bottom plates (SPL) and incubated at 37 °C for 45 min followed by 45 min incubation at room temperature. After 90 min of incubation, basal luminescence signals were recorded. In total, 25 μl of test ligand with various concentrations and 1 μM Forskolin (Sigma-Aldrich) were treated to the cells and luminescence signals were measured by Tristar 2 LB 942 multimode reader (Berthold). […] Relative luminescence unit (%) was calculated with the signal of wells treated with vehicle as 0% and the signal of wells treated with 1 μM Forskolin as 100% (DiRaddo et al, [2014]). Nonlinear regression was performed using a three-parameter logistic equation.

C3aR D417^7.35A = target: T2, C3aR D417^7.35A (Homo sapiens, UniProt Q16581, D417A); experiment: GloSensor-based cAMP assay, C3aR mutant D417A
T2 construct: expressed in transfected cells; host or cells: HEK293T
T2 sequence (Q16581 1-482 D417A): T1 sequence (Q16581 1-482 R161A) with A161R, D417A
Description: as §1

C3aR H418^7.36A = target: T3, C3aR H418^7.36A (Homo sapiens, UniProt Q16581, H418A); experiment: GloSensor-based cAMP assay, C3aR mutant H418A
T3 construct: expressed in transfected cells; host or cells: HEK293T
T3 sequence (Q16581 1-482 H418A): T1 sequence (Q16581 1-482 R161A) with A161R, H418A
Description: as §1

[1] = Dunnett's multiple comparisons test, WT minus mutant

Q: Cc1cc(C(c2ccc(Cl)cc2)c2ccc(Cl)cc2)sc1C(=O)N[C@@H](CCCNC(=N)N)C(=O)O [JR14a, reference compound] was tested. Which “Mean Diff. of pIC50, WT vs. R161A” value (C3aR R161^ECL2A; [1]) did it give?
A: -0.085

Q: And the IC50 (C3aR R161^ECL2A; IC50, R161^ECL2A, dose-response plot, Not calculated = entire loss of signaling)?
A: 2.28 nM

Q: What about the remaining activity at 1 µM (C3aR R161^ECL2A; R161A, Log[JR14a (M)] -6, single replicates, read-out: cAMP response (% Forskolin)) of the same molecule?
A: 11.8%

Q: And the remaining activity at 0.1 µM (C3aR R161^ECL2A; R161A, Log[JR14a (M)] -7, single replicates, read-out: cAMP response (% Forskolin))?
A: 13.6%

Q: What about the remaining activity at 0.01 µM (C3aR R161^ECL2A; R161A, Log[JR14a (M)] -8, single replicates, read-out: cAMP response (% Forskolin)) of the same molecule?
A: 41.3%

Q: What about the remaining activity at 0.001 µM (C3aR R161^ECL2A; R161A, Log[JR14a (M)] -9, single replicates, read-out: cAMP response (% Forskolin)) of the same molecule?
A: 79.3%

Q: And the remaining activity at 0.0001 µM (C3aR R161^ECL2A; R161A, Log[JR14a (M)] -10, single replicates, read-out: cAMP response (% Forskolin))?
A: 99.1%

Q: And the remaining activity at 10 pM (C3aR R161^ECL2A; R161A, Log[JR14a (M)] -11, single replicates, read-out: cAMP response (% Forskolin))?
A: 108%

Q: And the “ΔpIC50 ± SE of Diff.” value (C3aR R161^ECL2A; R161^ECL2A relative to WT C3aR)?
A: 0.09 ± 0.04

Q: What about the “decrease in IC50 values vs WT” value (C3aR R161^ECL2A; R161^ECL2 to Ala, relatively mild effect on downstream signaling) of the same molecule?
A: < 10 fold

Q: And the IC50 (C3aR R161^ECL2A; pIC50 (Replicate), R161^ECL2A, individual replicates)?
A: 3.72 nM and 1.86 nM and 1.74 nM

Q: What about the remaining activity at 1 µM (C3aR D417^7.35A; D417A, Log[JR14a (M)] -6, single replicates, read-out: cAMP response (% Forskolin)) of the same molecule?
A: 35.7%

Q: What about the remaining activity at 0.1 µM (C3aR D417^7.35A; D417A, Log[JR14a (M)] -7, single replicates, read-out: cAMP response (% Forskolin)) of the same molecule?
A: 87.8%

Q: And the remaining activity at 0.001 µM (C3aR D417^7.35A; D417A, Log[JR14a (M)] -9, single replicates, read-out: cAMP response (% Forskolin))?
A: 105%

Q: What about the remaining activity at 0.0001 µM (C3aR D417^7.35A; D417A, Log[JR14a (M)] -10, single replicates, read-out: cAMP response (% Forskolin)) of the same molecule?
A: 104%

Q: What about the “ΔpIC50 ± SE of Diff.” value (C3aR D417^7.35A; D417^7.35A relative to WT C3aR) of the same molecule?
A: -2.18 ± 0.05

Q: What about the “Mean Diff. of pIC50, WT vs. D417A” value (C3aR D417^7.35A; [1]) of the same molecule?
A: 2.176

Q: What about the IC50 (C3aR D417^7.35A; IC50, D417^7.35A, dose-response plot, Not calculated = entire loss of signaling) of the same molecule?
A: 425 nM

Q: What about the IC50 (C3aR D417^7.35A; pIC50 (Replicate), D417^7.35A, individual replicates) of the same molecule?
A: 575 nM and 339 nM and 380 nM

Q: What about the IC50 (C3aR D417^7.35A; pIC50 ± SEM (Mean), D417^7.35A, mean of independent experiments, Not calculated = entire loss of signaling) of the same molecule?
A: 417 nM

Q: And the “Mean Diff. of pIC50, WT vs. H418A” value (C3aR H418^7.36A; [1])?
A: -0.145

Q: What about the “ΔpIC50 ± SE of Diff.” value (C3aR H418^7.36A; H418^7.36A relative to WT C3aR) of the same molecule?
A: 0.14 ± 0.08

Q: And the IC50 (C3aR H418^7.36A; H418^7.36A, mean of independent experiments, read-out: pIC50 ± SEM (Mean) (converted))?
A: 2.51 nM

Q: What about the IC50 (C3aR H418^7.36A; IC50, H418^7.36A, dose-response plot) of the same molecule?
A: 2.56 nM

Q: What about the IC50 (C3aR H418^7.36A; pIC50 (Replicate), H418^7.36A, individual replicates) of the same molecule?
A: 2.04 nM and 4.07 nM and 4.79 nM and 0.977 nM
